Results published in patent US12558442B2, “Biological fluid treatment systems” (priority 2019, dated 2026).

Tested on: Klebsiella pneumoniae
Assay: Photochemical inactivation of K. pneumoniae in plasma or platelets in PAS with amotosalen and UVA LED illumination
Format: cell-based
Settings: 150 μM amotosalen nominal, triplicate

Cc1oc2c(C)c3oc(=O)cc(C)c3cc2c1COCCN [S-59, 3-(2-aminoethoxymethyl)-2,5,9-trimethylfuro[3,2-g]chromen-7-one]
Log Inactivation (plasma, INTERCEPT plasma set, 6.4 J/cm^2, UVA LEDs 346-349 nm): 6.3 ± 0.3 log | Log Inactivation (plasma, INTERCEPT plasma set, 6.4 J/cm^2, UVA LEDs 346-349 nm, listed as amotosalen): 6.3±0.3 log | Log Inactivation (platelets/PAS, LV set, 3.9 J/cm^2, UVA LEDs 346-349 nm): 7.2 ± 0.2 log | Log Inactivation (platelets/PAS, LV set, 3.9 J/cm^2, UVA LEDs 346-349 nm, listed as amotosalen): 7.2±0.2 log
